# In patent US20070275063A1, “SUSTAINED RELEASE PHARMACEUTICAL COMPOSITIONS AND METHODS OF TREATMENT USING THE SAME” (SmithKline Beecham Corporation, priority 1998, published 2007):
# Key:
# [1] = human, in vivo
# Procedure: Dose regimens evaluated were: 4 mg once daily and 2 mg twice daily, and 8 mg once daily and 4 mg twice daily.
# [2] = tested on: fasting plasma glucose (FPG) concentrations in diabetic patients; experiment: PK/PD model (modified indirect response model IV) of the effect of Compound (I) on fasting plasma glucose in Type 2 diabetes patients; type: in vivo, human
# Excerpt: The method by which the Threshold Plasma Concentration, such as the SC50 concentration, for a given compound can be determined is:
# 2) the model predicted concentrations for the compound are then fed back into the model and used to determine the change in fasting plasma glucose levels after various doses;
# 3) the relationship between predicted plasma concentrations of compound and fasting plasma glucose can suitably be determined using an indirect pharmacological response model (model IV), for example that described in (Dayneka N L, Garg V and Jusko W J, Comparison of Four Basic Models of Indirect Pharmacodynamic Responses. J of Pharmacokinetics and Biopharmaceutics. Vol 21, No 4. 1993). This model yields estimates of glucose input rate (Kin) and output rate (Kout), maximal stimulation of glucose output (Smax). Hill coefficient (gamma) and the Threshold Plasma Concentration, such as the SC50 concentration (i.e the concentration associated with a half maximal response) to be determined for that compound. This method forms a further part of the present invention.
# For Compound (I), it was necessary to account for a time delay between the time of actual initiation of dosing (week 0) and the observed change in fasting plasma glucose. This delay factor was estimated through the modelling for each dose level. […] The delay factor was incorporated into the model for deriving fasting plasma glucose by assuming that the first dose of drug occurred only after the time dictated by the delay factor. It is considered that for this model a delay factor would be required for other thiazolidinedione insulin sensitisers and that this factor will be substantially similar to that found for Compound (I). Delay factors for other compounds may also be required to be determined using similar methodology to that disclosed herein.
# A modified indirect response model IV (Dayneka et al. 1993) was developed utilizing the pharmacokinetics of Compound (I) as the driving force for the change in fasting plasma glucose after various doses of Compound (I). Modeling fittings were done using ADAPT II, Release 4 (D'Argenio and Schumitzky, 1979).
# In the absence of Compound (I), plasma glucose levels are governed by formation (kin) and utilization (kout). The action of Compound (I) was described as stimulation (S(t)) of the utilization of plasma glucose (kout), described in text as FPG reduction (Eq. 1). Smax represents the maximal stimulation, SC50 is the Compound (I) concentration associated with half-maximal stimulation and γ represents a sigmoidicity parameter in the Hill type function (Eq. 2). [formula]
# The mean fasting plasma glucose profiles from 6 weeks prior to dosing (time 0) through 26 weeks of treatment for the 5 treatment groups are shown in FIG. 2. The PK/PD model accommodates the full nature of the fasting plasma glucose response over the duration of the study period as evidenced by the close agreement between observed and predicted fasting plasma glucose concentrations (FIG. 2). […] The lag-time allows the model to describe the slow onset of action of Compound (I) observed over the first 4 weeks of dosing.
structure (smiles),measurement,setting,value
"CN(CCOc1ccc(CC2SC(=O)NC2=O)cc1)c1ccccn1 (stereo not shown) [Compound (I), 5-[4-[2-(N-methyl-N-(2-pyridyl)amino)ethoxy]benzyl]thiazolidine-2,4-dione]",mean post hoc oral clearance,[1],2.68 L/h
same,EC50,"[2]; Homo sapiens, iv, estimated pharmacodynamic parameter, not in table, read-out: SC50 (plasma concentration associated with half-maximal effect on fasting plasma glucose)",0.0514 µg/mL
same,Smax (maximal stimulation of glucose utilization),[2]; estimated pharmacodynamic parameter,0.44
same,lag-time (delay) between first dose and onset of FPG response,"[2]; mean across dose levels, estimated through the modelling",292 h
same,maximum FPG reduction suggested by Smax of the model,[2]; model-derived,160 mg/dL
same,reduction in glycaemia,"[2]; once daily dosing, study 024",clinically meaningful reductions in glycaemia are evident
same,efficacy of twice daily versus once daily dosing,"[2]; study 024, same total daily dose",twice daily dosing tended to be more efficacious than once daily
